Literature values in patent US9322040B2, “Pseudonocardia sp. and method for preparing deoxynyboquinone by utilizing same” (SOUTH CHINA SEA INSTITUTE OF OCEANOLOGY, CHINESE ACADEMY OF …, priority 2011, dated 2016).

Tested on: cancer cell

SMILES: Cc1cc(=O)[nH]c2c1C(=O)c1c(C)cc(=O)n(C)c1C2=O [Deoxynyboquinone]
- cytotoxin activity: significant cytotoxin activity
- activity under anoxic conditions (anoxic conditions): stronger activity can be still shown under anoxic conditions

SMILES: Cc1cc(=O)n(C)c2c1C(=O)c1c(C)cc(=O)n(C)c1C2=O [SCH 538415, reference compound]
- activity relative to Deoxynyboquinone (compared with the activity of Deoxynyboquinone): 10 times weaker
